Assay results published in patent US5434159A, “6,11-cyclyl-1,2,3,4,5,6,11,11a-octahydrobenzo[b]quinolines and compositions and method of use thereof” (Sterling Winthrop Inc., priority 1994, dated 1995).
Where a name gives a salt, the structure may show the parent alone.

Columns and labels:
[1] = target: PCP recognition sites (PCP receptor); experiment: [^3 H]TCP Radioreceptor Assay (internal screen); assay type: binding; conditions: whole rat brain membranes, [^3 H]TCP approx. 1 nM, room temperature 25 min; mean of at least two separate determinations
Procedure: [^3 H]TCP Radioreceptor Assay (internal screen)
[^3 H]TCP binding to PCP recognition sites was performed as described by Vignon et al. Brain Research 1983, 280, 194-197. Male Spmgue-Dawley rats were sacrificed by decapitation, and whole brains were homogenized in 10 volumes (wt/vol) of cold Tris-HCl buffer (50 mM, pH 7.7) using a Brinkmann Polytron (setting 6, 30 sec). The homogenate was centrifuged at 40,000×g for 10 min at 4° C. The supernatant was decanted, and the homogenization and centrifugation steps were repeated twice as described above. Following this, the pellet was resuspended in Tris-HCl (5 mM, pH 7.7) at a tissue concentration of 0.5-0.75 g/ml, and one ml aliquots were frozen at -70° C. unto use. The binding characteristics for PCP recognition sites were not altered by the freezing of membrane suspensions.
On the day of the assay, membrane aliquots were thawed, resuspended in fresh 5 mM Tris-HCl buffer at a tissue concentration of 1 mg/ml, and stored on ice until use. Each assay tube contained 100 μl of [^3 H]TCP at a final concentration of approximately 1 nM, 100 μl of various concentrations of the compounds of interest, 500 μl of the tissue suspension and 300 μ of buffer to a final assay volume of 1 ml and a final protein concentration of 0.5 mg/tube. Non-specific binding was defined by addition of a final concentration of 100 μM PCP to blank tubes. All tubes were incubated at room temperature for 25 min before termination of the reaction by rapid filtration over Whatman GF/B glass fiber filters that had been presoaked in a solution of 0.5% polyethyleneimine for at least 1 hr prior to use. Filters were washed with three 4 ml volumes of cold Tris buffer. Following addition of scintillation cocktail, the amount of bound radioactivity was determined by liquid scintillation spectrometry using a Beckman LS 5000 TA liquid scintillation counter with an efficiency for tritium of approximately 55%. Inhibition constants (Ki values) were calculated using the EBDA/LIGAND program (McPherson, J. Pharmacol. Meth. 1985, 14, 213-228), purchased from Elsevier/Biosoft, Inc. Results are reported as Ki values which are expressed as the mean of at least two separate determinations.

[2] = tested on: NMDA-induced neurotoxicity in cultured cortical neurons; experiment: Antagonism of NMDA-induced Neurotoxicity in Cultured Neurons (LDH activity); assay type: cell-based, Swiss-Webster mice; conditions: 500 μM NMDA for 30 minutes, LDH 24 hours after removal, day 13 cultured cortical neurons
Procedure: Antagonism of NMDA-induced Neurotoxicity in Cultured Neurons
Preparation of cultured cortical neurons
Pregnant, Swiss-Webster mice were obtained from Taconic 0 Farms (Germantown, N.Y.) and sacrificed 16 days post conception. Fetuses were removed and placed in a sterile dish containing Hank's balanced salt solution (HBSS), pH 7.4. Brain cortices were dissected, meninges were removed, the tissue was minced and placed into a solution of HBSS containing 0.25% (w/v) trypsin at 37° C. for 15 minutes. Tissue was then triturated with a sterile pasteur pipet, diluted with minimal essential media (Gibco 330-1430), pH 7.4, supplemented with 10% horse serum, 10% fetal calf serum, 2 mM l-glutamine, 21 mM d-glucose, 2.2 g/L sodium bicarbonate, 1000 U/ml penicillin, and 1,000 μg/ml streptomycin. Cells were plated onto Falcon primaria 96 well plates at a final density of 50,000 cells/well and incubated at 37° C. in the presence of 5% (v/v) carbon dioxide. After 5 days, plating media was replaced with maintenance media containing minimal essential media (Gibco 330-1430), pH 7.4, supplemented with 10% horse serum, […], 21 mM d-glucose, 2.2 g/l sodium bicarbonate, 1,000 U/ml penicillin, 1,000 μg/ml streptomycin, and 10 μM cytosine arabinoside. On days 7 and 10, media was replaced with maintenance media as above lacking the cytosine arabinoside. Experiments were conducted on day 13.
Neuroprotection Assessment
Day 13 cultured cortical neurons were washed twice with minimal essential media, pH 7.4 and then exposed for 30 minutes to 500 μM N-methyl-D-aspartic acid (NMDA) with or without varying concentrations of test agents. Dizocilpine (MK-801) at a final concentration of 10 μM MK-801 was routinely included as a positive control. MK-801 and test agents were prepared in minimal essential media supplemented with 21 mM d-glucose and 2.2 g/L sodium bicarbonate (MEM). After 30 minutes, media was replaced with MEM alone. Exposure of neurons to test agents was limited to the NMDA treatment period. […]

[3] = tested on: PCP recognition sites (PCP receptor); experiment: [^3 H]TCP Radioreceptor Assay (external screen); assay type: binding; conditions: @10 μM; whole rat forebrain membranes, 25° C., 60 minutes
Procedure: Representative compounds of the invention were also tested in an external [^3 H]TCP radioreceptor assay using the following protocol:
[^3 H]TCP Radioreceptor Assay (external screen)
A procedure similar to that described above for the [^3 H]TCP radioreceptor assay (internal screen) was utilized except that the whole rat forebrain membranes were incubated at 25° C. for 60 minutes rather than at room temperature for 25 minutes, before termination of the reaction. The results are reported as a percent (%) inhibition of binding at 10 μM.

Row | Compound | Ki [1] [nM] | other results
1 | 6,11 [2',3']tetrahydrofuranyl-1,2,3,4,5,6,11,11a-octahydrobenzo [b]quinolizine hydrobromide [Example 8] | 606 | IC50 [2]: 12200 nM
2 | 6,11 [2',3']tetrahydropyranyl-1,2,3,4,5,6,11,11a-octahydrobenzo[b]quinolizine hydrobromide [Example 7] | 1420 | –
3 | c1ccc2c(c1)C1C3CCCCC3C2N2CCCCC12 (centres unmarked) [Example 1a, 6,11 [1',2']cyclohexyl-1,2,3,4,5,6,11:11a-octahydrobenzo[b]quinolizine] | 134 | –
4 | c1ccc2c(c1)C1c3ccccc3C2N2CCCCC12 (centres unmarked) [Example 1b, 6,11 [1',2']benzeno-1,2,3,4,5,6,11,11a-octahydrobenzo[b]quinolizine] | 333 | –
5 | CC12c3ccccc3C(C3CCCC31)N1CCCCC12 (centres unmarked) [Example 2, 11-methyl-6,11 [1',2']cyclopentyl-1,2,3,4,5,6,11,11a-octahydrobenzo[b]quinolizine] | 40 | –
6 | Oc1ccc2c(c1)C1C3CCCC3C2C2CCCCN21 (centres unmarked) [Example 3b, 8-hydroxy-6,11 [1',2']cyclopentyl-1,2,3,4,5,6,11,11a-octahydrobenzo[b]quinolizine hydrobromide] | 27.9 | –
7 | Brc1ccc2c(c1)C1C3CCCC3C2N2CCCCC12 (centres unmarked) [Example 4, 9-bromo-6,11 [1',2']cyclopentyl-1,2,3,4,5,6,11,11a-octahydrobenzo[b]quinolizine hydrobromide] | 43.7 | –
8 | Fc1ccc2c(c1)C1C3CCCC3C2N2CCCCC12 (centres unmarked) [Example 5, 9-fluoro-6,11[1',2']cyclopentyl-1,2,3,4,5,6,11,11a-octahydrobenzo[b]quinolizine fumarate] | 20 | –
9 | Nc1ccc2c(c1)C1C3CCCC3C2N2CCCCC12 (centres unmarked) [Example 6, 9-amino-6,11 [1',2']cyclopentyl-1,2,3,4,5,6,11,11a-octahydrobenzo[b]quinolizine] | 11.8 | –
10 | c1ccc2c(c1)C1C3CCCC3C2N2CCCCC12 (centres unmarked) [Example 9a, 6,11 [1',2']cyclopentyl-1,2,3,4,5,6,11,11a-octahydrobenzo[b]quinolizine hydrobromide] | 15.4 | IC50 ([2]; Mus musculus, Cortical neurone): 100 nM; [^3 H]TCP (external screen) Percent inhibition [3]: 100%
11 | Oc1ccc2c(c1)C1C3CCCC3C2N2CCCCC12 (centres unmarked) [Example 10b, 9-hydroxy-6:11 [1',2']cyclopentyl-1,2,3,4,5,6,11,11a-octahydrobenzo [b]quinolizine hydrobromide] | 2.31 | IC50 ([2]; Mus musculus, Cortical neurone): 42 nM
12 | c1ccc2c(c1)C1C3CCCCC3C2N2CCCCC12 (centres unmarked) [Example 11, 6,11 [1',2']cyclohexyl-1,2,3,4,5,6,11,11a-octahydrobenzo[b]quinolizine] | 219 | –
13 | Oc1cccc2c1C1C3CCCC3C2N2CCCCC12 (centres unmarked) [Example 12b, 10-hydroxy-6,11 [1',2']cyclopentyl-1,2,3,4,5,6,11,11a-octhydrobenzo[b]quinolizine hydrobromide] | 2.29 | –
14 | CC12c3ccccc3C(C3CCCC31)C1CCCCN12 (centres unmarked) [Example 13, 6-methyl-6,11 [1',2']cyclopentyl-1,2,3,4,5,6,11,11a-octahydrobenzo [b]quinolizine] | 8.87 | –
15 | [O-][N+]12CCCCC1C1c3ccccc3C2C2CCCC21 (centres unmarked) [Example 14, 6,11 [1',2']cyclopentyl-1,2,3,4,5,6,11,11a-octahydrobenzo[b]quinolizine-5-oxide] | 33.1 | –
16 | C[N+]12CCCCC1C1c3ccccc3C2C2CCCC21 (centres unmarked) [Example 15, 5-methyl-6,11 [1',2']cyclopentyl-1,2,3,4,5,6,11,11a-octahydrobenzo[b]quinolizinium bromide] | 22.3 | –
